In patent publication US6852744B2, “Pyrrolidine derivatives and their use as chymase inhibitor” (Dainippon Pharmaceutical Co., Ltd., priority 2000, dated 2005):
Positions count from the first letter of the chain named.

Key:
human chymase = target: T1, human chymase (Homo sapiens, UniProt P23946); test: Human chymase inhibitory activity (in vitro, angiotensin I substrate); format: biochemical; conditions: recombinant human chymase (COS7 cells); substrate angiotensin I; 37° C.; read-out: Human Chymase Inhibition (IC50:nM)
T1 construct: made in house; host or cells: COS7 cells (transient transfection)
T1 sequence (P23946 22-247): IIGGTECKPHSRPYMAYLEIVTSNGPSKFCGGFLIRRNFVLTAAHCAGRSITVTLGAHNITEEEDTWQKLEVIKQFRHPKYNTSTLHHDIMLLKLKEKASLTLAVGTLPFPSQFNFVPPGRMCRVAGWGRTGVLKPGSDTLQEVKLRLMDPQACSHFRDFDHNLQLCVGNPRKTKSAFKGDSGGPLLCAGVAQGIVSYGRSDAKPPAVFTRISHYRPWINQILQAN
Protocol: The inhibitory activities of the compounds on monkey chymase and human chymase were tested in vitro. The test compounds are as shown by Compound Nos. in Tables 13 and 14.
Preparation of Human Chymase
Human chymase was produced in mammalian cells using a recombinant DNA technique.
Construction of a human prochymase expression plasmid was performed in the following manner. Briefly, single stranded cDNA was synthesized from human heart mRNA (Clontech Laboratories, Inc.). Polymerase chain reaction amplification was carried out using the cDNA as a template and appropriate pairs of primers. The primer sequences were determined based on the human preprochymase. The amplified product was cloned into the plasmid pUC18, and then recloned into the plasmid pBluescript II KS(+) (Stratagene). Finally, the DNA fragment carrying the entire protein-coding sequences of the human preprochymase was inserted to a transient expression vector by the usual method to yield the human prochymase expression plasmid.
Transfection of COS7 cells with the human prochymase expression plasmid was carried out using the FuGene™ 6 transfection reagent (Boehringer Mannheim). About 7 hours after exposure to DNA, the culture medium was changed to a serum-free one. The culture supernatant was collected after 2 days culture.
Human prochymase was purified from the culture supernatant using a heparin actigel column as described above in the preparation of monkey chymase.
In order to produce active chymase, the human prochymase was incubated with dipeptidylpeptidase I (Sigma). The resultant active human chymase was purified using a heparin actigel column as described above. The active human chymase was eluted with 0.01 mol/1000 ml sodium phosphate buffer pH 7.4 containing 2 mol/1000 ml NaCl.
Measurement of Chymase Inhibitory Activity (In Vitro Assay)
The chymase inhibitory activities of compounds I-A of this invention were measured according to the following method. Briefly, the purified monkey or human chymase was diluted to an appropriate concentration with 0.01 mol/1000 ml sodium phosphate buffer, pH 7.4, containing 2 mol/1000 ml KCl and 0.1% Nonidet P-40 and used as enzyme solution. Angiotensin I (Peptide Institute Inc.) was diluted with water to 5 mg/ml and used as substrate solution. Test compounds were serially diluted with 10% DMSO. […] After pre-incubation of the mixture at 37° C., 20 μl of the substrate solution was added to the enzyme-test compound mixture and the new mixture was incubated at 37° C. Fifty μl of 30% trichloroacetic acid solution was finally added to stop the enzymatic reaction.
The amount of L-His-L-Leu was measured as angiotensin II produced by the enzymatic reaction. Briefly, 10 μl of the reaction mixture and 10 μl of 1% orthophthalaldehyde solution dissolved in methanol were mixed with 100 μl of 2 mol/1000 ml NaOH and kept at room temperature. The reaction was then stopped by adding 10 μl of 6 mol/1000 ml HCl. Finally, the fluorescence induced by the reaction was measured using in a photometer with an excitation wavelength of 355 nm and an emission wavelength of 460 nm. Chymase inhibitory activities of test compounds were expressed as 50% inhibitory concentration (IC50).

monkey chymase = target: T2, monkey chymase (Macaca fascicularis, UniProt P56435); test: Monkey chymase inhibitory activity (in vitro, angiotensin I substrate); format: biochemical; conditions: chymase purified from monkey cheek pouch and stomach; substrate angiotensin I; 37° C.; read-out: Monkey Chymase Inhibition (IC50:nM)
T2 construct: chymase was extracted from homogenized monkey cheek pouch and stomach; from tissue; host or cells: monkey cheek pouch and stomach
T2 sequence (P56435 22-247): T1 sequence (P23946 22-247) with F29S, A44V, E63K, D159Y, S201L, Q221K
Summary of the method: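 Angiotensin I (substrate stock 5 mg/ml) is cleaved at 37° C by chymase purified from monkey cheek pouch and stomach, after compound pre-incubation, in pH 7.4 sodium phosphate buffer with KCl and Nonidet P-40. Trichloroacetic acid stops the reaction; L-His-L-Leu product is quantified after orthophthalaldehyde reaction.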

in vivo = conditions: male, ddy, mouse, po
Protocol: Plasma levels of test compounds were measured in the following manner.
Briefly, test compounds were dissolved in DMSO to 100 mg/ml, and suspended with 0.5% tragacanth solution 1 mg/ml. Male ddy mice, weighing about 30 g, were orally administered the test compound solution. After one hour, blood was collected from the heart under anesthesia with Nembutal (Dainippon Pharmaceutical Co., Ltd.) and centrifuged to obtain plasma. The collected plasma (125 μl) was mixed with 10% DMSO (120 μl) and ethyl acetate (720 μl). After centrifugation, the ethyl acetate layer was collected and evaporated. The residue was dissolved and diluted serially as test samples with 10% DMSO. Chymase inhibitory activities of test samples were measured in the same manner as described in Experiment 1. In this chymase inhibitory assay of test samples, 0.1 mol/1000 ml sodium phosphate buffer, pH 7.4 contained 5 mmol/1000 ml ethylenediaminetetraacetic acid (EDTA) disodium salt, 0.77 mmol/1000 ml diisopropyl fluorophosphate (DFP) and 8 mmol/1000 ml dipyridyl. Plasma concentrations of test compounds were calculated from calibration curves.
The calibration curve was obtained in the following manner. Test compounds (0.06-60 ng) were added into the control plasma. The control plasma was treated in the same manner as for test samples. Finally, chymase inhibitory activities of the 10% DMSO-dissolved residues were measured and plotted against the amount of test compounds.

[1] = tested on: chymase-induced dye leakage; test: Skin permeability test: inhibition of vascular permeability (Evans Blue dye leakage); format: in vivo; conditions: male Hartley guinea pigs, 100 mg/kg orally 1 hour before intradermal injection of human chymase
Protocol: Skin permeability test was carried out according to the following method. Briefly, male Hartley guinea pigs (350-460 g, Shizuoka Laboratory Animal Center, Japan) were anesthetized by intraperitoneal injection of Nembutal™ (30 mg/kg; Dainippon Pharmaceutical Co., Ltd., Japan). After shaving the guinea pigs dorsa, 50 μl of purified human chymase (Elastin Products Inc., USA) diluted with phosphate buffered saline (PBS) to a concentration of 1.8 units /55 μg protein/ml (1 unit of chymase represents the amount of chymase required to hydrolyze 1.0 μmole of N-benzoyl-L-tyrosine-ethyl ester (BTEE) per minute at 25° C.; pH 7.8) were injected intradermally into three dorsal sites of each animal. […] The amounts of dye leakage into the dorsal skins were measured according to the following method.
Briefly, the area around each injection site (16 mm diameter) was punched out from the inside of the skin, and the leaked dye was extracted by incubation of the punched skin in N,N-dimethylformamide (DMF, 3 ml) at 55° C. overnight. The absorbance of the dye extract was then measured using a spectrophotometer at a wavelength of 620 nm. […] The amount of chymase-induced dye leakage (ACDL) and the amount of solvent-induced dye leakage (ASDL) in each animal were calculated as the average of dye leakage from the three treated dorsal sites in each case. […]

[2] = Toxicity study, 2 weeks oral; format: in vivo; conditions: five-week-old male ddy mice; orally once a day for 2 weeks; 30 and 300 mg/kg/day
Protocol: Five-week-old male ddy mice were administered orally once a day for 2 weeks with the compound I-A-1 at dose levels of 30 and 300 mg/kg/day.

## Cc1noc(C)c1C(=O)N[C@H](C(=O)N1CCC[C@H]1C(=O)N[C@@H](Cc1csc2ccccc12)C(=O)C(F)(F)F)C(C)C [I-A-1, N-[(1S)-2-((2S)-2-{N-[(1S)-1-(benzo[b]thiophen-3-yl-methyl)-3,3,3-trifluoro-2-oxopropyl]carbamoyl}pyrrolidinyl)-1-(methylethyl)-2-oxoethyl](3,5-dimethylisoxazol-4-yl)carboxamide]
Human chymase
  IC50: 55 nM
Monkey chymase
  IC50: 3.8 nM
In vivo
  concentration at 1 h: 480 ng/mL
[1]
  Dye leakage inhibition rate (%): 34%
[2]
  treatment-related finding (body weight, diet consumption, heart, liver, kidney weight, necropsy finding, hematology, blood chemistry): no treatment-related finding
